The text below walks through data of patent US12559502B2, “Thieno pyrimidines as ferroportin inhibitors” (Global Blood Therapeutics, Inc., priority 2020, dated 2026).

For the experiment, the target named is T1, human ferroportin (Homo sapiens, UniProt Q9NP59).
T1 construct: expressed in transfected cells; host or cells: CHO cells, stably transfected, doxycycline-inducible
T1 sequence (Q9NP59 1-571): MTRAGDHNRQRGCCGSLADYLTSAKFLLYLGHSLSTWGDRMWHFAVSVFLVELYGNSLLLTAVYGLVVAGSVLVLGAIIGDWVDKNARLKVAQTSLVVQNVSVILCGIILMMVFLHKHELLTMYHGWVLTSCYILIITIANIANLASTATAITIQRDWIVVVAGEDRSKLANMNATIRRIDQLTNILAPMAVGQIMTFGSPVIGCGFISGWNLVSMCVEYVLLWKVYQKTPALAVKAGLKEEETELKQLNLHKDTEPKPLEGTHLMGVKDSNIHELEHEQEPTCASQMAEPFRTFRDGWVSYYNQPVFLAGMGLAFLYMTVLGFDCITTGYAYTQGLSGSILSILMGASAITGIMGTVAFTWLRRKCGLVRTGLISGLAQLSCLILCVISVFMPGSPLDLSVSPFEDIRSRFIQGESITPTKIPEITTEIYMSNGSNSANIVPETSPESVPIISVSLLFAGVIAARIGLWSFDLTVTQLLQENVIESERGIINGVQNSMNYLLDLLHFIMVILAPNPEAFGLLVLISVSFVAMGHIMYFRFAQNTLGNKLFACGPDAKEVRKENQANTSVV
Description: In-vitro ferroportin internalization assay (luciferase reporter). To be noted: average pEC50; stably-transfected CHO cell line expressing human ferroportin tagged to a luciferase reporter; 6 h incubation with test compound; luciferase activity (Nano-Glo). In kind it is cell-based. On the procedure:
The protocol for this assay is generally as described in WO2018/128828, incorporated herein by reference in its entirety. Functional internalization of ferroportin protein was measured using a stably-transfected CHO cell line expressing the human ferroportin tagged to a luciferase reporter. Cells were plated for 24 h in the presence of ferric ammonium citrate (FAC). Ferroportin protein expression was induced with doxycycline for 24 h. The next day, the compounds were added. Test compounds were dissolved in DMSO. Cells were incubated with the test compounds for 6 h, and subsequently luciferase activity was measured using the Nano-Glo Luciferase Assay System and Glomax (Promega, Madison, WI).
The average pEC50 was determined for the test compounds.
For orientation: Reporter assays use an easily measured gene product as a stand-in for the process of interest.
As for `Cc1sc2nc(-c3cc(OCCO)ccn3)nc(N(C)CC(=O)Nc3cccc(F)c3)c2c1C` [Compound 9, N-(3-fluorophenyl)-2-({2-[4-(2-hydroxyethoxy)pyridin-2-yl]-5,6-dimethylthieno[2,3-d]pyrimidin-4-yl}(methyl)amino)acetamide], the pEC50 amounted to 7.7.

The compound `Cc1sc2nc(-c3cc(OCCN(C)C)ccn3)nc(N(C)CC(=O)NC(C)(C)C)c2c1C` [Compound 18, N-tert-butyl-2-[(2-{4-[2-(dimethylamino)ethoxy]pyridin-2-yl}-5,6-dimethylthieno[2,3-d]pyrimidin-4-yl)(methyl)amino]acetamide] had a pEC50 of 7.8.

In the case of `Cc1ccc(NC(=O)CN(C)c2nc(-c3cn(C)cn3)nc3sc(C)c(C)c23)cn1` [Compound 12, 2-{[5,6-dimethyl-2-(1-methyl-1H-imidazol-4-yl)thieno[2,3-d]pyrimidin-4-yl](methyl)amino}-N-(6-methylpyridin-3-yl)acetamide], the pEC50 came to 7.1.

With `COc1ccc(NC(=O)CN(C)c2nc(-c3cc(OCCO)ccn3)nc3sc(C)cc23)cn1` [Compound 16, 2-({2-[4-(2-hydroxyethoxy)pyridin-2-yl]-6-methylthieno[2,3-d]pyrimidin-4-yl}(methyl)amino)-N-(6-methoxypyridin-3-yl)acetamide], the pEC50 worked out at 7.6.

In turn, `COc1ccc(NC(=O)CN(C)c2nc(-c3cn(C)cn3)nc3sc(C)c(C)c23)cn1` [Compound 13, 2-{[5,6-dimethyl-2-(1-methyl-1H-imidazol-4-yl)thieno[2,3-d]pyrimidin-4-yl](methyl)amino}-N-(6-methoxypyridin-3-yl)acetamide] gave a pEC50 of 7.1.

In the case of `Cc1sc2nc(-c3cc(OCCN4C[C@@H]5C[C@H]4CO5)ccn3)nc(N(C)CC(=O)NC(C)(C)C)c2c1C` [Compound 23, N-tert-butyl-2-{[5,6-dimethyl-2-(4-{2-[(1S,4S)-2-oxa-5-azabicyclo[2.2.1]heptan-5-yl]ethoxy}pyridin-2-yl)thieno[2,3-d]pyrimidin-4-yl](methyl)amino}acetamide], the negative-log EC50 (pEC50) came to 8.2.

Compound `COc1ccc(NC(=O)CN(C)c2nc(-c3cc(OCCO)ccn3)nc3scc(C)c23)cn1` [Compound 17, 2-({2-[4-(2-hydroxyethoxy)pyridin-2-yl]-5-methylthieno[2,3-d]pyrimidin-4-yl}(methyl)amino)-N-(6-methoxypyridin-3-yl)acetamide] displayed a pEC50 of 7.7.

`Cc1sc2nc(-c3cc(O[C@@H]4CCN(C)C4)ccn3)nc(N(C)CC(=O)NC(C)(C)C)c2c1C` [Compound 19, N-tert-butyl-2-{[5,6-dimethyl-2-(4-{[(3R)-1-methylpyrrolidin-3-yl]oxy}pyridin-2-yl)thieno[2,3-d]pyrimidin-4-yl](methyl)amino}acetamide] registered a negative-log EC50 (pEC50) of 7.6.

Compound `Cc1sc2nc(-c3cc(OCCN(C)C)ccn3)nc(N(C)CC(=O)NC3(C(F)(F)F)CC3)c2c1C` [Compound 22, 2-[(2-{4-[2-(dimethylamino)ethoxy]pyridin-2-yl}-5,6-dimethylthieno[2,3-d]pyrimidin-4-yl)(methyl)amino]-N-[1-(trifluoromethyl)cyclopropyl]acetamide] came in with a pEC50 of 7.5.

In the case of `COc1ccnc(-c2nc(N(C)CC(=O)Nc3ccc(OC)nc3)c3ccsc3n2)c1` [Compound 7, 2-{[2-(4-methoxypyridin-2-yl)thieno[2,3-d]pyrimidin-4-yl](methyl)amino}-N-(6-methoxypyridin-3-yl)acetamide], the pEC50 stood at 6.6.

Compound `Cc1sc2nc(-c3cn(C)cn3)nc(N(C)CC(=O)NC(C)(C)C)c2c1C` [Compound 14, N-tert-butyl-2-{[5,6-dimethyl-2-(1-methyl-1H-imidazol-4-yl)thieno[2,3-d]pyrimidin-4-yl](methyl)amino}acetamide] gave a pEC50 of 7.

On to `Cc1ccc(NC(=O)CN(C)c2nc(-c3cc(OCCO)ccn3)nc3sc(C)c(C)c23)cn1` [Compound 10, 2-({2-[4-(2-hydroxyethoxy)pyridin-2-yl]-5,6-dimethylthieno[2,3-d]pyrimidin-4-yl}(methyl)amino)-N-(6-methylpyridin-3-yl)acetamide], for which the negative logarithm of the EC50 (pEC50) is 7.6.

Compound `Cc1sc2nc(-c3cc(OCCn4ccnc4)ccn3)nc(N(C)CC(=O)NC(C)(C)C)c2c1C` [Compound 24, N-tert-butyl-2-[(2-{4-[2-(1H-imidazol-1-yl)ethoxy]pyridin-2-yl}-5,6-dimethylthieno[2,3-d]pyrimidin-4-yl)(methyl)amino]acetamide] had a pEC50 of 8.

The compound `COc1cccc(NC(=O)CN(C)c2nc(-c3cc(OCCO)ccn3)nc3sc(C)c(C)c23)c1` [Compound 8, 2-({2-[4-(2-hydroxyethoxy)pyridin-2-yl]-5,6-dimethylthieno[2,3-d]pyrimidin-4-yl}(methyl)amino)-N-(3-methoxyphenyl)acetamide] registered a pEC50 of 7.8.

`Cc1sc2nc(-c3cc(OCCN4CCOCC4)ccn3)nc(N(C)CC(=O)NC(C)(C)C)c2c1C` [Compound 20, N-tert-butyl-2-[(5,6-dimethyl-2-{4-[2-(morpholin-4-yl)ethoxy]pyridin-2-yl}thieno[2,3-d]pyrimidin-4-yl)(methyl)amino]acetamide] registered a pEC50 of 8.

The compound `Cc1sc2nc(-c3cc(OCCO)ccn3)nc(N(C)CC(=O)NC(C)(C)C)c2c1C` [Compound 15, N-tert-butyl-2-({2-[4-(2-hydroxyethoxy)pyridin-2-yl]-5,6-dimethylthieno[2,3-d]pyrimidin-4-yl}(methyl)amino)acetamide] registered a pEC50 of 7.8.

As to `Cc1sc2nc(-c3cc(OCCN4CCN(C)CC4)ccn3)nc(N(C)CC(=O)NC(C)(C)C)c2c1C` [Compound 21, N-tert-butyl-2-[(5,6-dimethyl-2-{4-[2-(4-methylpiperazin-1-yl)ethoxy]pyridin-2-yl}thieno[2,3-d]pyrimidin-4-yl)(methyl)amino]acetamide], the negative logarithm of the EC50 (pEC50) turned out to be 7.8.

The compound `COc1ccc(NC(=O)CN(C)c2nc(-c3cc(OCCO)ccn3)nc3sc(C)c(C)c23)cn1` [Compound 11, 2-([2-[4-(2-hydroxyethoxy)pyridin-2-yl]-5,6-dimethylthieno[2,3-d]pyrimidin-4-yl](methyl)amino)-N-(6-methoxypyridin-3-yl)acetamide] registered a pEC50 of 7.5.

In general, pEC50 refers to the negative decadic logarithm of the EC50, by convention in mol/L. Lower therefore signals a large EC50.
